Assay results from EPA's ToxValDB 9.5.
Several values for one entry are separate records, joined by “and”; a condition that tells them apart may be missing. Identical values can stand only once.

Tested on: Rattus norvegicus
Details: short-term, duration: 28 days, oral, gavage, Sprague-Dawley

Cc1cccc(Nc2cc(Cl)nc(SCC(=O)O)n2)c1C [[4-Chloro-6-(2,3-xylidino)-2-pyrimidinylthio]acetic acid]
6.25 mg/kg-day: LOEL (F, Clinical chemistry_Albumin) | LOEL (F, Clinical chemistry_Albumin/globulin ratio) | LOEL (F, Clinical chemistry_Alkaline phosphatase) | LOEL (F, Clinical chemistry_Globulin) | LOEL (F, Clinical chemistry_Sorbitol dehydrogenase) | LOEL (F, Clinical chemistry_Testosterone) | LOEL (F, Clinical chemistry_Thyroid stimulating hormone) | LOEL (F, Gene expression_Acox1) | LOEL (F, Gene expression_Cyp2b1) | LOEL (F, Gene expression_Cyp2b2) | LOEL (F, Gene expression_Cyp4a1) | LOEL (F, Nonneoplastic effects_Liver - Hepatocyte, cytoplasmic alteration) | LOEL (F, Organ weights_Liver - Absolute) | LOEL (F, Organ weights_Liver - Relative) | LOEL (F, Organ weights_R. kidney - Absolute) | LOEL (F, Organ weights_R. kidney - Relative) | LOEL (F, Reproductive toxicity_Altered estrous cyclicity) | LOEL (M, Clinical chemistry_Alanine aminotransferase) | LOEL (M, Clinical chemistry_Albumin) | LOEL (M, Clinical chemistry_Albumin/globulin ratio) | LOEL (M, Clinical chemistry_Alkaline phosphatase) | LOEL (M, Clinical chemistry_Cholesterol) | LOEL (M, Clinical chemistry_Free thyroxine) | LOEL (M, Clinical chemistry_Globulin) | LOEL (M, Clinical chemistry_Sorbitol dehydrogenase) | LOEL (M, Clinical chemistry_Total bile acids) | LOEL (M, Clinical chemistry_Total protein) | LOEL (M, Clinical chemistry_Total thyroxine) | LOEL (M, Gene expression_Acox1) | LOEL (M, Gene expression_Acyl-CoA oxidase) | LOEL (M, Gene expression_Altered sperm parameters) | LOEL (M, Gene expression_Cyp2b1) | LOEL (M, Gene expression_Cyp2b2) | LOEL (M, Gene expression_Cyp4a1) | LOEL (M, Nonneoplastic effects_Liver - Hepatocyte, cytoplasmic alteration) | LOEL (M, Nonneoplastic effects_Liver - Hepatocyte, hypertrophy) | LOEL (M, Organ weights_Liver - Absolute) | LOEL (M, Organ weights_Liver - Relative) | LOEL (M, Organ weights_R. kidney - Absolute) | LOEL (M, Organ weights_R. kidney - Relative) | LOEL (M, Organ weights_Spleen - Absolute) | LOEL (M, Reproductive toxicity_Altered sperm parameters)
12.5 mg/kg-day: LOEL (F, Clinical chemistry_Total protein)
25 mg/kg-day: LOEL (F, Clinical chemistry_Alanine aminotransferase) | LOEL (F, Clinical chemistry_Aspartate aminotransferase) | NOEL (F, Clinical chemistry_Cholesterol) | NOEL (F, Clinical chemistry_Creatinine kinase) | NOEL (F, Clinical chemistry_Direct bilirubin) | NOEL (F, Clinical chemistry_Free thyroxine) | NOEL (F, Clinical chemistry_Indirect bilirubin) | NOEL (F, Clinical chemistry_T bilirubin) | NOEL (F, Clinical chemistry_Total bile acids) | NOEL (F, Clinical chemistry_Total bilirubin) | NOEL (F, Clinical chemistry_Total thyroxine) | NOEL (F, Clinical chemistry_Triglycerides) | NOEL (F, Hematology_Erythrocytes) | NOEL (F, Hematology_Hematocrit) | NOEL (F, Hematology_Hemoglobin) | NOEL (F, Hematology_Leukocytes) | NOEL (F, Hematology_Mean corpuscular hemoglobin concentration) | NOEL (F, Hematology_Mean corpuscular volume) | NOEL (F, Hematology_Platelets) | NOEL (F, Hematology_Reticulocytes) | NOEL (F, Hematology_S. neutrophils) | NOEL (F, Nonneoplastic effects_Bone marrow - Hypocellularity) | NOEL (F, Nonneoplastic effects_Kidney - Papilla, necrosis) | NOEL (F, Nonneoplastic effects_Liver - Hepatocyte, Necrosis) | LOEL (F, Nonneoplastic effects_Liver - Hepatocyte, hypertrophy) | NOEL (F, Nonneoplastic effects_Liver - Hepatocyte, vacuolization cytoplasmic) | NOEL (F, Nonneoplastic effects_Liver - Necrosis) | NOEL (F, Nonneoplastic effects_Nose - Olfactory epithelium, degeneration) | NOEL (F, Nonneoplastic effects_Nose - Olfactory epithelium, hyperplasia) | NOEL (F, Nonneoplastic effects_Nose - Olfactory epithelium, inflammation, suppurative) | NOEL (F, Nonneoplastic effects_Nose - Olfactory epithelium, necrosis) | NOEL (F, Nonneoplastic effects_Spleen - Extramedullary hematopoiesis, decreased) | NOEL (F, Nonneoplastic effects_Stomach, forestomach - Epithelium, hyperplasia) | NOEL (F, Nonneoplastic effects_Thymus - Atrophy) | NOEL (F, Organ weights_Heart - Absolute) | NOEL (F, Organ weights_Heart - Relative) | NOEL (F, Organ weights_Lung - Absolute) | NOEL (F, Organ weights_Lung - Relative) | NOEL (F, Organ weights_R. adrenal gland - Absolute) | NOEL (F, Organ weights_R. adrenal gland - Relative) | NOEL (F, Organ weights_Spleen - Absolute) | NOEL (F, Organ weights_Spleen - Relative) | NOEL (F, Organ weights_Thymus - Absolute) | NOEL (F, Organ weights_Thymus - Relative) | NOEL (F, Organ weights_Thyroid gland - Absolute) | NOEL (F, Organ weights_Thyroid gland - Relative) | NOEL (F, Survival rates) | NOEL (F, body weight) | LOEL (M, Clinical chemistry_Aspartate aminotransferase) | NOEL (M, Clinical chemistry_Creatinine kinase) | LOEL (M, Clinical chemistry_Direct bilirubin) | NOEL (M, Clinical chemistry_Indirect bilirubin) | NOEL (M, Clinical chemistry_T bilirubin) | LOEL (M, Clinical chemistry_Testosterone) | LOEL (M, Clinical chemistry_Thyroid stimulating hormone) | NOEL (M, Clinical chemistry_Total bilirubin) | NOEL (M, Clinical chemistry_Total triiodothyronine) | NOEL (M, Clinical chemistry_Triglycerides) | NOEL (M, Hematology_Erythrocytes) | NOEL (M, Hematology_Hematocrit) | NOEL (M, Hematology_Hemoglobin) | NOEL (M, Hematology_Leukocytes) | NOEL (M, Hematology_Mean corpuscular hemoglobin concentration) | NOEL (M, Hematology_Mean corpuscular volume) | NOEL (M, Hematology_Platelets) | NOEL (M, Hematology_Reticulocytes) | NOEL (M, Hematology_S. neutrophils) | NOEL (M, Nonneoplastic effects_Bone marrow - Hypocellularity) | NOEL (M, Nonneoplastic effects_Epididymis - Duct, exfoliated germ cell) | NOEL (M, Nonneoplastic effects_Epididymis - Epithelium, apoptosis) | NOEL (M, Nonneoplastic effects_Epididymis - Hypospermia) | NOEL (M, Nonneoplastic effects_Forestomach - Epithelium, hyperplasia) | NOEL (M, Nonneoplastic effects_Forestomach - Inflammation, chronic active) | NOEL (M, Nonneoplastic effects_Kidney - Nephropathy, chronic progressive) | NOEL (M, Nonneoplastic effects_Kidney - Papilla, necrosis) | NOEL (M, Nonneoplastic effects_Liver - Hepatocyte, Necrosis) | NOEL (M, Nonneoplastic effects_Liver - Hepatocyte, vacuolization cytoplasmic) | NOEL (M, Nonneoplastic effects_Liver - Necrosis) | NOEL (M, Nonneoplastic effects_Lymph nodes - Mandibular, atrophy) | NOEL (M, Nonneoplastic effects_Lymph nodes - Mesenteric, atrophy) | NOEL (M, Nonneoplastic effects_Nose - Olfactory epithelium, degeneration) | NOEL (M, Nonneoplastic effects_Nose - Olfactory epithelium, hyperplasia) | NOEL (M, Nonneoplastic effects_Nose - Olfactory epithelium, inflammation, suppurative) | NOEL (M, Nonneoplastic effects_Nose - Olfactory epithelium, necrosis) | NOEL (M, Nonneoplastic effects_Nose - Respiratory epithelium, hyperplasia) | NOEL (M, Nonneoplastic effects_Nose - Respiratory epithelium, inflammation, chronic active) | NOEL (M, Nonneoplastic effects_Spleen - Atrophy) | NOEL (M, Nonneoplastic effects_Spleen - Extramedullary hematopoiesis, decreased) | NOEL (M, Nonneoplastic effects_Spleen - Extramedullary hematopoiesis, increased) | NOEL (M, Nonneoplastic effects_Stomach, forestomach - Epithelium, hyperplasia) | NOEL (M, Nonneoplastic effects_Testes - Germinal epithelium, degeneration) | NOEL (M, Nonneoplastic effects_Testes - Interstitial cell, atrophy) | NOEL (M, Nonneoplastic effects_Testes - Seminiferous tubule, spermatid retention) | NOEL (M, Nonneoplastic effects_Thymus - Atrophy) | NOEL (M, Nonneoplastic effects_Thymus - Lymphocyte, apoptosis) | NOEL (M, Nonneoplastic effects_Thyroid gland - Follicular cell hypertrophy) | LOEL (M, Organ weights_Heart - Absolute) | NOEL (M, Organ weights_Heart - Relative) | NOEL (M, Organ weights_Lung - Absolute) | NOEL (M, Organ weights_Lung - Relative) | NOEL (M, Organ weights_R. adrenal gland - Absolute) | NOEL (M, Organ weights_R. adrenal gland - Relative) | NOEL (M, Organ weights_R. testis - Absolute) | NOEL (M, Organ weights_Spleen - Relative) | NOEL (M, Organ weights_Thymus - Absolute) | NOEL (M, Organ weights_Thymus - Relative) | NOEL (M, Organ weights_Thyroid gland - Absolute) | NOEL (M, Survival rates)
12.5 mg/kg-day and 6.25 mg/kg-day: LOEL (F, Clinical chemistry_Total triiodothyronine)
